ChEMBL document CHEMBL2429845, “Design, synthesis, and antimicrobial activity of some novel homodrimane sesquiterpenoids with diazine skeleton” (2013)

Columns and labels:
Bacillus subtilis [1] = test: Antibacterial activity against Bacillus subtilis at 10 mg/ml after 24 hrs by agar diffusion assay; type: functional; conditions: read-out: DIZ
Candida albicans [2] = test: Antifungal activity against Candida albicans ATCC 10231 at 10 mg/ml after 48 hrs by agar diffusion assay; type: functional; conditions: ATCC 10231, 48 h, read-out: DIZ
Nakaseomyces glabratus [3] = test: Antifungal activity against Candida glabrata ATCC MYA 2950 at 10 mg/ml after 48 hrs by agar diffusion assay; type: functional; conditions: ATCC MYA 2950, 48 h, read-out: DIZ
Staphylococcus aureus [4] = test: Antibacterial activity against Staphylococcus aureus ATCC 25923 at 10 mg/ml after 24 hrs by agar diffusion assay; type: functional; conditions: ATCC 25923, 24 h, read-out: DIZ
Pseudomonas aeruginosa [5] = test: Antibacterial activity against Pseudomonas aeruginosa ATCC 27853 at 10 mg/ml after 24 hrs by agar diffusion assay; type: functional; conditions: ATCC 27853, 24 h, read-out: DIZ
[Candida] sake [6] = Antifungal activity against Candida sake at 10 mg/ml after 48 hrs by agar diffusion assay; type: functional; conditions: Fermentozyma sake, read-out: DIZ
Escherichia coli [7] = test: Antibacterial activity against Escherichia coli ATCC 25922 at 10 mg/ml after 24 hrs by agar diffusion assay; type: functional; conditions: ATCC 25922, 24 h, read-out: DIZ
Micrococcus luteus [8] = test: Antibacterial activity against Sarcina lutea ATCC 9341 at 10 mg/ml after 24 hrs by agar diffusion assay; type: functional; conditions: ATCC 9341, 24 h, read-out: DIZ
Bacillus cereus [9] = test: Antibacterial activity against Bacillus cereus ATCC 14579 at 10 mg/ml after 24 hrs by agar diffusion assay; type: functional; conditions: ATCC 14579, 24 h, read-out: DIZ
Pseudomonas aeruginosa [10] = test: Antibacterial activity against Pseudomonas aeruginosa ATCC 27853 at 30 ug/disk after 24 hrs by agar diffusion assay; type: functional; conditions: ATCC 27853, 24 h, read-out: DIZ
Escherichia coli [11] = test: Antibacterial activity against Escherichia coli ATCC 25922 at 30 ug/disk after 24 hrs by agar diffusion assay; type: functional; conditions: ATCC 25922, 24 h, read-out: DIZ
Bacillus subtilis [12] = test: Antibacterial activity against Bacillus subtilis at 30 ug/disk after 24 hrs by agar diffusion assay; type: functional; conditions: read-out: DIZ
Staphylococcus aureus [13] = test: Antibacterial activity against Staphylococcus aureus ATCC 25923 at 30 ug/disk after 24 hrs by agar diffusion assay; type: functional; conditions: ATCC 25923, 24 h, read-out: DIZ
Bacillus cereus [14] = test: Antibacterial activity against Bacillus cereus ATCC 14579 at 30 ug/disk after 24 hrs by agar diffusion assay; type: functional; conditions: ATCC 14579, 24 h, read-out: DIZ
Micrococcus luteus [15] = test: Antibacterial activity against Sarcina lutea ATCC 9341 at 30 ug/disk after 24 hrs by agar diffusion assay; type: functional; conditions: ATCC 9341, 24 h, read-out: DIZ
[Candida] sake [16] = Antifungal activity against Candida sake 100 mg/disk after 48 hrs by agar diffusion assay; type: functional, organism-based
Nakaseomyces glabratus [17] = test: Antifungal activity against Candida glabrata ATCC MYA 2950 100 mg/disk after 48 hrs by agar diffusion assay; type: functional, organism-based
Candida albicans [18] = test: Antifungal activity against Candida albicans ATCC 10231 at 100 mg/disk after 48 hrs by agar diffusion assay; type: functional, organism-based
Bacillus subtilis [19] = test: Antibacterial activity against Bacillus subtilis at 25 ug/disk after 24 hrs by agar diffusion assay; type: functional; conditions: read-out: DIZ
Escherichia coli [20] = test: Antibacterial activity against Escherichia coli ATCC 25922 at 25 ug/disk after 24 hrs by agar diffusion assay; type: functional; conditions: ATCC 25922, 24 h, read-out: DIZ
Micrococcus luteus [21] = test: Antibacterial activity against Sarcina lutea ATCC 9341 at 25 ug/disk after 24 hrs by agar diffusion assay; type: functional; conditions: ATCC 9341, 24 h, read-out: DIZ
Bacillus cereus [22] = test: Antibacterial activity against Bacillus cereus ATCC 14579 at 25 ug/disk after 24 hrs by agar diffusion assay; type: functional; conditions: ATCC 14579, 24 h, read-out: DIZ
Pseudomonas aeruginosa [23] = test: Antibacterial activity against Pseudomonas aeruginosa ATCC 27853 at 25 ug/disk after 24 hrs by agar diffusion assay; type: functional; conditions: ATCC 27853, 24 h, read-out: DIZ
Staphylococcus aureus [24] = test: Antibacterial activity against Staphylococcus aureus ATCC 25923 at 25 ug/disk after 24 hrs by agar diffusion assay; type: functional; conditions: ATCC 25923, 24 h, read-out: DIZ

Row | Compound | zone of inhibition at 10000 µg/mL (Bacillus subtilis [1]) [mm] | zone of inhibition at 10000 µg/mL (Candida albicans [2]) [mm] | zone of inhibition at 10000 µg/mL (Nakaseomyces glabratus [3]) [mm] | zone of inhibition at 10000 µg/mL (Staphylococcus aureus [4]) [mm] | zone of inhibition at 10000 µg/mL (Pseudomonas aeruginosa [5]) [mm] | zone of inhibition at 10000 µg/mL ([Candida] sake [6]) [mm] | zone of inhibition at 10000 µg/mL (Escherichia coli [7]) [mm] | zone of inhibition at 10000 µg/mL (Micrococcus luteus [8]) [mm] | zone of inhibition at 10000 µg/mL (Bacillus cereus [9]) [mm] | further results
1 | C=C1CC[C@H]2C(C)(C)CCC[C@]2(C)[C@H]1CC(=O)Nc1cnccn1 | 0 | 0 | 0 | 15 | 0 | 0 | 0 | 0 | 10 | 
2 | O=C(N[C@H](CO)[C@H](O)c1ccc([N+](=O)[O-])cc1)C(Cl)Cl [CHLORAMPHENICOL] |  |  |  |  |  |  |  |  |  | zone of inhibition at 30 µg/disc (Pseudomonas aeruginosa [10]): 19 mm; zone of inhibition at 30 µg/disc (Escherichia coli [11]): 29 mm; zone of inhibition at 30 µg/disc (Bacillus subtilis [12]): 31 mm; zone of inhibition at 30 µg/disc (Staphylococcus aureus [13]): 25 mm; zone of inhibition at 30 µg/disc (Bacillus cereus [14]): 28 mm; zone of inhibition at 30 µg/disc (Micrococcus luteus [15]): 30 mm
3 | C=C1CC[C@H]2C(C)(C)CCC[C@]2(C)[C@H]1CC(=O)Nc1ncccn1 | 7 | 0 | 0 | 14 | 0 | 0 | 10 | 19 | 12 | 
4 | C=C1CC[C@H]2C(C)(C)CCC[C@]2(C)[C@H]1CC(=O)N(C(=O)NC1CCCCC1)C1CCCCC1 | 0 | 0 | 0 | 19 | 0 | 0 | 0 | 0 | 11 | 
5 | C=C1CC[C@H]2C(C)(C)CCC[C@]2(C)[C@H]1CC(=O)N(C(=O)C[C@H]1C(=C)CC[C@H]2C(C)(C)CCC[C@]12C)c1ncccn1 | 0 | 0 | 0 | 10 | 10 | 0 | 0 | 0 | 0 | 
6 | NYSTATIN |  |  |  |  |  |  |  |  |  | inhibition zone (IZ) ([Candida] sake [16]): 31 mm; inhibition zone (IZ) (Nakaseomyces glabratus [17]): 26 mm; inhibition zone (IZ) (Candida albicans [18]): 29 mm
7 | C=C1CC[C@H]2C(C)(C)CCC[C@]2(C)[C@H]1CC(=O)Nc1ccncn1 | 7 | 0 | 0 | 15 | 0 | 0 | 12 | 18 | 10 | 
8 | CC1(C)S[C@@H]2[C@H](NC(=O)[C@H](N)c3ccccc3)C(=O)N2[C@H]1C(=O)O [AMPICILLIN] |  |  |  |  |  |  |  |  |  | zone of inhibition at 25 µg/disc (Bacillus subtilis [19]): 25 mm; zone of inhibition at 25 µg/disc (Escherichia coli [20]): 20 mm; zone of inhibition at 25 µg/disc (Micrococcus luteus [21]): 30 mm; zone of inhibition at 25 µg/disc (Bacillus cereus [22]): 0 mm; zone of inhibition at 25 µg/disc (Pseudomonas aeruginosa [23]): 0 mm; zone of inhibition at 25 µg/disc (Staphylococcus aureus [24]): 25 mm
